According to article PMC10398856 (ACS Omega, 2023):

What was measured:
SARS-CoV-2 = test: microbe, parasite or virus in culture; type: cell-based; settings: for EC50: Severe acute respiratory syndrome coronavirus 2, 48 h, read-out: EC50, antiviral effect on SARS-CoV-2
[1] = system: human coronavirus 229E (HCoV-229E); test: microbe, parasite or virus in culture; type: cell-based; settings: for IC50: Human coronavirus 229E, A549, read-out: IC50, antiviral effect on HCoV-229E
[2] = 1 μM, 30 min, 37 °C
[3] = rat, in vivo
in vivo [4] = settings: male, Wistar Albino, rat, po, 10 mg/kg
in vivo [5] = settings: female, Wistar Albino, rat, po

Compound	EC50 (SARS-CoV-2) [µM]	IC50 [1] [µM]	selectivity index, SARS-CoV-2 (SARS-CoV-2)	also measured
O=c1cc(OCCOc2ccnc(SCc3ccc(F)cc3)n2)c2cc(F)ccc2o1 [5c, 6-Fluoro-4-(2-((2-((4-fluorobenzyl)thio)pyrimidin-4-yl)oxy)ethoxy)-2H-chromen-2-one]	> 50	> 25		
Cc1cccc(CSc2nccc(OCCOc3cc(=O)oc4ccccc34)n2)c1 [5e, 4-(2-((2-((3-Methylbenzyl)thio)pyrimidin-4-yl)oxy)ethoxy)-2H-chromen-2-one]	6.59 ± 0.28	24.4	11.4	metabolic stability against human liver microsomes (1 μM, 30 min, 37 °C): showed metabolic stability; compound found to be stable in human liver microsomes (human): > 50%; selectivity index, HCoV-229E [1]: 3.06; metabolic stability against rat liver microsomes [2]: showed metabolic stability
O=c1cc(OCCCOc2ccnc(SCc3ccc(F)cc3)n2)c2cc(F)ccc2o1 [5d, 6-Fluoro-4-(3-((2-((4-fluorobenzyl)thio)pyrimidin-4-yl)oxy)propoxy)-2H-chromen-2-one]	14.3 ± 0.14	15.4		GHS classification category ([3]; female, Wistar Albino): Category-4; clinical signs of toxicity and gross pathological changes ([3]; po, 300 mg/kg): no signs of toxicity; Cmax (in vivo [4]): 220 ng/mL; half-life (in vivo [4]): 73.3 h; LD50 (in vivo [5]): 500 to 1000 mg/kg
Cc1cccc(CSc2nccc(OCCCOc3cc(=O)oc4ccc(F)cc34)n2)c1 [5h, 6-Fluoro-4-(3-((2-((3-methylbenzyl)thio)pyrimidin-4-yl)oxy)propoxy)-2H-chromen-2-one]	> 50	> 25		
O=c1cc(OCCOc2ccnc(SCc3ccc(Cl)cc3)n2)c2ccccc2o1 [5i, 4-(2-((2-((4-Chlorobenzyl)thio)pyrimidin-4-yl)oxy)ethoxy)-2H-chromen-2-one]	> 50	> 25	<1	
O=c1cc(OCCOc2ccnc(SCc3ccc(F)cc3)n2)c2ccccc2o1 [5a, 4-(2-((2-((4-Fluorobenzyl)thio)pyrimidin-4-yl)oxy)ethoxy)-2H-chromen-2-one]	> 50	> 25		
Cc1cccc(CSc2nccc(OCCOc3cc(=O)oc4ccc(F)cc34)n2)c1 [5g, 6-Fluoro-4-(2-((2-((3-methylbenzyl)thio)pyrimidin-4-yl)oxy)ethoxy)-2H-chromen-2-one]	> 50	> 25		
Cc1cccc(CSc2nccc(OCCCOc3cc(=O)oc4ccccc34)n2)c1 [5f, 4-(3-((2-((3-Methylbenzyl)thio)pyrimidin-4-yl)oxy)propoxy)-2H-chromen-2-one]	> 50	> 25	<1	
O=c1cc(OCCCOc2ccnc(SCc3ccc(F)cc3)n2)c2ccccc2o1 [5b, 4-(3-((2-((4-Fluorobenzyl)thio)pyrimidin-4-yl)oxy)propoxy)-2H-chromen-2-one]	> 50	> 25		
